In brackets after ≈: the same amount, converted by molar mass. Several values for one entry are separate records, joined by “and”; a condition that tells them apart may be missing. Equal entries are not always repeated.
Assays:
[1] = Folin–Ciocalteau reduction (FCR) assay, reducing capacity; format: biochemical; conditions: gallic acid equivalents; mean ± SE
Procedure: Folin-Ciocalteu assay, commonly known as the total phenols assay, determines a sample reducing capacity. FCR contains heteropolyphosphotunstate-molybdates, which are reduced in aqueous milieu at pH ≈ 10 to blue species, presumably (PMoW11O40)^4- [29]. […] This is probably related to high hydrophobicity of these derivatives. Reducing capacity was evaluated using Folin-Ciocalteau reagent with minor modifications as described previously.

[2] = DPPH radical scavenging assay; format: biochemical; conditions: methanol, DPPH 20 µM, 30 min; mean ± SE
Procedure: When reduced, the solution decolorizes in proportion to the strength and concentration of the antiradical compound tested. The results of this test are usually expressed as the concentration of the compound that reduces 50% of the radical (IC50, Table 1). […] However, no clear relationship between the carboxylic chain length and DPPH radical scavenging activity could be established. Antiradical activity was evaluated spectrophotometrically as the ability of the substances to reduce the DPPH radical as described previously with minor modifications.

[3] = ABTS radical cation scavenging (Antioxidant Assay Kit); format: biochemical; conditions: Trolox equivalents; aqueous buffer pH 5; mean ± SE
Procedure: Determination of ABTS scavenging activity involves an electron-transfer reaction. […] The capacity to scavenge the radical cation (ABTS^·) was evaluated using the Antioxidant Assay Kit (CS0790, Sigma-Aldrich, Prague, Czech Republic) and expressed as Trolox equivalents (TE) from the Trolox calibration curve.

[4] = system: rat liver microsomal membranes; assay: Inhibition of microsomal lipid peroxidation induced by tert-butyl hydroperoxide (TBARS); format: biochemical; conditions: male rat liver microsomes, tert-butylhydroperoxide 1 mM, 37 °C, 30 min, TBARS; mean ± SE; read-out: Lpx (IC50; µM)
Excerpt: Lipid peroxidation is a type of oxidative degradation of lipids caused by free radicals in cell membranes, resulting in cell damage. The most notable initiators of this chain reaction in living cells are reactive oxygen species (ROS), such as OH· and HO2·, which combine with a hydrogen atom to make water and a fatty acid radical. We used tert-butyl hydroperoxide, a relatively stable organic peroxide, as initiator of peroxidation of rat liver microsomal membranes. The inhibition of this reaction depends not only on the free radical scavenging capacity, but also on the capacity of these compounds to interact with and penetrate lipid bilayers. Isoquercitrin derivatives differed considerably in their capacity to inhibit the peroxidation of microsomal membranes. […] A similar trend, e.g., improving the activity in medium chain derivatives with subsequent drop for longer chain esters, was reported for anti-proliferative activity of IQ monocarboxylic acid esters on the growth of tumoral Caco2 cells, and also for the inhibition of tyrosinase activity.
Pooled microsomes from male rat livers (M9066, Sigma-Aldrich, Prague, Czech Republic) were washed five times using centrifugation and phosphate-buffered saline (PBS, 13,500 rpm, 5 min, 4 °C) to remove sucrose. In addition, 400 µL of the diluted microsomal suspension (0.625 mg protein/mL in PBS), the compounds tested in 50 µL of dimethyl sulfoxide (DMSO, final concentration 5–2000 µM) and 50 µL of tert-butylhydroperoxide in PBS (final concentration 1 mM) were mixed and incubated at 37 °C for 30 min. Determination of lipid peroxidation products as thiobarbituric acid reactive substances (TBARS) and calculation of the IC50 values were performed as described previously.

[5] = Solubility in water; format: physicochemical; conditions: pH = 6.5, isoquercitrin purity 96.5%
Excerpt: The hydrophilicity/lipophilicity of a compound is often crucial for assessing its bioavailability. Flavonoids are generally poorly soluble in water; aqueous solubility increases at alkaline pH as phenols are weak acids. […] [15]).

[6] = pH not given; cited from earlier work
[7] = 50 °C, cited from earlier work

In the case of `O=c1c(O[C@@H]2O[C@H](CO)[C@@H](O)[C@H](O)[C@H]2O)c(-c2ccc(O)c(O)c2)oc2cc(O)cc(O)c12` [Compound 1, quercetin-3-O-β-D-glucopyranoside, reference compound], the “FCR (GAE)” value [1] is reported as 1.84 GAE and 1.84 ± 0.04 ^a GAE, the IC50 [2] is reported as 1.4 ± 0.06 µM and the “ABTS (TE)” value [3] is reported as 1.97 TE and 1.97 ± 0.06 ^i TE. For the same compound, the IC50 [4] was 972 ± 11 µM, the solubility [5] was 360 µg/mL (≈ 775 µM) and the solubility in water [6] was 95 µg/mL (≈ 205 µM). The solubility in acetone ([7]; acetone) was 14000 µg/mL (≈ 30100 µM), the solubility in acetonitrile ([7]; acetonitrile) was 1800 µg/mL (≈ 3880 µM) and the “solubility in tert-amyl alcohol” value ([7]; tert-amyl alcohol) was 30000 µg/mL (≈ 64600 µM).
